From US20200363414A1, “Neoantigen Identification for T-Cell Therapy” (Gritstone Oncology, Inc., priority 2018, published 2020)
Where no end group is shown, it is not given here.

System: neoantigen-reactive T-cells (patient PBMCs)
Test: IFN-gamma ELISpot of in vitro expanded (IVS) NSCLC patient PBMCs
Assay type: cell-based, human
Settings: IFN-gamma ELISpot after 14 day IVS culture of NSCLC patient PBMCs

| Sequence | T-cell recognition of individual neoantigen peptide |
| --- | --- |
| DENITTIQF | peptide-specific T-cell response was deconvolved |
| DTVEYPYTSF | peptide-specific T-cell response was deconvolved |
| EVADAATLTM | peptide-specific T-cell response was deconvolved |
| GTKKDVDVLK | recognized by CD8 T-cells |
| QDVSVQVER | peptide-specific T-cell response was deconvolved |
